Test results as given in the supplement of paper PMC11061612.

Legend:
Assay in all cases: combination Emax (second highest fraction inhibited in the dose matrix, 72 h); higher = more inhibition; extreme values may be limits of the assay
IM-9 (Non-Cancerous) = system: IM-9 (Non-Cancerous)
In short: (§1)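 Cell lines in DMEM/F12 or RPMI with 10% FBS were plated in 1536-well plates, held 24 hours at 37°C, 5% CO2, then given two-drug dose matrices for 72 hours (DMSO typically 0.2%). Viability was read by CellTiter-Glo 2.0 luminescence and scaled as inhibition from 0 (vehicle wells) to 1 (blank wells). Combination Emax is the second-highest inhibition in the matrix; Bliss excess is observed combination effect minus expected EA + EB − EA·EB, EA and EB being single-agent effects.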

[1] = system: GCT (Other Solid Carcinomas)
In short: as §1

[2] = system: huH-1 (Hepatocellular Carcinoma)
In short: as §1

EW-16 (Ewing's Sarcoma) = system: EW-16 (Ewing's Sarcoma)
In short: as §1

[3] = system: A253 (Head and Neck Carcinoma)
In short: as §1

[4] = system: 22RV1 (Prostate Carcinoma)
In short: as §1

PEO1 (Ovarian Carcinoma) = system: PEO1 (Ovarian Carcinoma)
In short: as §1

[5] = system: Jurkat (T-Lymphoblastic Leukemia)
In short: as §1

[6] = system: JHH-2 (Hepatocellular Carcinoma)
In short: as §1

[7] = system: DU-4475 (Breast Carcinoma)
In short: as §1

RH-41 (Rhabdomyosarcoma) = system: RH-41 (Rhabdomyosarcoma)
In short: as §1

[8] = system: LU-165 (Small Cell Lung Carcinoma)
In short: as §1

[9] = system: GA-10 (Burkitt's Lymphoma)
In short: as §1

EB2 (Burkitt's Lymphoma) = system: EB2 (Burkitt's Lymphoma)
In short: as §1

COLO-792 (Melanoma) = system: COLO-792 (Melanoma)
In short: as §1

[10] = system: NCI-H441 (Lung Adenocarcinoma)
In short: as §1

[11] = system: G-402 (Other Solid Carcinomas)
In short: as §1

KP-N-YN (Neuroblastoma) = system: KP-N-YN (Neuroblastoma)
In short: as §1

[12] = system: OACp4C (Esophageal Adenocarcinoma)
In short: as §1

[13] = system: NCI-H716 (Colorectal Carcinoma)
In short: as §1

Row | SMILES | combination Emax (IM-9 (Non-Cancerous)) | combination Emax [1] | combination Emax [2] | combination Emax (EW-16 (Ewing's Sarcoma)) | combination Emax [3] | combination Emax [4] | combination Emax (PEO1 (Ovarian Carcinoma)) | combination Emax [5] | combination Emax [6] | combination Emax [7] | combination Emax (RH-41 (Rhabdomyosarcoma)) | combination Emax [8] | combination Emax [9] | combination Emax (EB2 (Burkitt's Lymphoma)) | combination Emax (COLO-792 (Melanoma)) | combination Emax [10] | combination Emax [11] | combination Emax (KP-N-YN (Neuroblastoma)) | combination Emax [12] | combination Emax [13]
1 | NC1(C(=O)N[C@@H](CCO)c2ccc(Cl)cc2)CCN(c2ncnc3[nH]ccc23)CC1 [Capivasertib] + Cn1cnc2c(F)c(Nc3ccc(Br)cc3Cl)c(C(=O)NOCCO)cc21 [Selumetinib] (first compound max 10 µM, 7x7, partner max 10 µM) | 0.874 | 0.753 | 0.464 | 0.393 | 0.89 | 0.625 | 0.56 | 0.686 | 0.674 | 1 | 0.934 | 0.444 | 0.77 | 0.628 | 0.8 | 0.351 | 0.513 | 0.391 | 0.987 | 0.783
2 | COc1cccc2c1C(=O)c1c(O)c3c(c(O)c1C2=O)C[C@@](O)(C(=O)CO)C[C@@H]3O[C@H]1C[C@H](N)[C@H](O)[C@H](C)O1 [Doxorubicin] + Cc1cc2ncnn2cc1Nc1ncc2c(n1)n(C1CCOCC1)c(=O)n2C [AZD7648] (first compound max 1 µM, 7x7, partner max 10 µM) | 1 | 0.625 | 0.55 | 0.913 | 0.957 | 0.805 | 0.419 | 0.972 | 0.627 | 1 | 0.95 | 0.337 | 0.963 | 0.979 | 0.445 | 0.452 | 0.949 | 0.698 | 0.783 | 0.305
3 | CS(=O)(=O)CCNCc1ccc(-c2ccc3ncnc(Nc4ccc(OCc5cccc(F)c5)c(Cl)c4)c3c2)o1 [Lapatinib] + C[C@@H](Oc1cc(-c2cnn(C3CCNCC3)c2)cnc1N)c1c(Cl)ccc(F)c1Cl [Crizotinib] (first compound max 10 µM, 7x7, partner max 10 µM) | 0.991 | 0.903 | 0.671 | 0.969 | 0.907 | 0.706 | 0.718 | 0.947 | 0.882 | 0.989 | 0.991 | 0.441 | 0.98 | 0.768 | 0.981 | 0.6 | 0.879 | 0.755 | 1 | 0.837
4 | CC(=O)c1c(C)c2cnc(Nc3ccc(N4CCNCC4)cn3)nc2n(C2CCCC2)c1=O [Palbociclib] + CC1(C)CCC(CN2CCN(c3ccc(C(=O)NS(=O)(=O)c4ccc(NCC5CCOCC5)c([N+](=O)[O-])c4)c(Oc4cnc5[nH]ccc5c4)c3)CC2)=C(c2ccc(Cl)cc2)C1 [Venetoclax] (first compound max 10 µM, 7x7, partner max 1 µM) | 0.776 | 0.313 | 0.119 | 0.333 | 0.0236 | 0.382 | 0.194 | 0.412 | 0.357 | 0.153 | 0.329 | 0.115 | 0.95 | 0.448 | 0.29 | 0.224 | 0.442 | 0.42 | 0.217 | 0.475
5 | CC(=O)c1c(C)c2cnc(Nc3ccc(N4CCNCC4)cn3)nc2n(C2CCCC2)c1=O [Palbociclib] + Cc1c2c(nn1C)CSCc1cc(n(C)n1)CSc1cc(c3ccccc3c1)OCCCc1c(C(=O)O)n(C)c3c-2c(Cl)ccc13 [AZD5991] (first compound max 10 µM, 7x7, partner max 1 µM) | 0.714 | 0.395 | 0.236 | 0.415 | 0.635 | 0.503 | 0.329 | 0.883 | 0.368 | 0.231 | 0.911 | 0.167 | 0.975 | 0.518 | 0.836 | 0.302 | 0.839 | 0.387 | 0.46 | 0.356
6 | CC(=O)c1c(C)c2cnc(Nc3ccc(N4CCNCC4)cn3)nc2n(C2CCCC2)c1=O [Palbociclib] + Cn1cnc2c(F)c(Nc3ccc(Br)cc3Cl)c(C(=O)NOCCO)cc21 [Selumetinib] (first compound max 10 µM, 7x7, partner max 10 µM) | 0.906 | 0.405 | 0.167 | 0.311 | 0.189 | 0.463 | 0.295 | 0.386 | 0.463 | 1 | 0.269 | 0.0618 | 0.941 | 0.492 | 0.5 | 0.327 | 0.462 | 0.318 | 0.557 | 0.539
7 | COc1cccc(OCCCN)c1-c1cc(Nc2cnc(C#N)cn2)n[nH]1 [Prexasertib] + C=CCn1c(=O)c2cnc(Nc3ccc(N4CCN(C)CC4)cc3)nc2n1-c1cccc(C(C)(C)O)n1 [AZD1775] (first compound max 1 µM, partner max 1 µM) | 1 | 0.644 | 0.811 | 0.75 | 0.93 | 0.619 | 0.478 | 1 | 0.9 | 0.997 | 1 | 0.604 | 1 | 0.936 | 0.593 | 0.539 | 0.731 | 0.994 | 0.835 | 0.664
8 | COc1cccc(OCCCN)c1-c1cc(Nc2cnc(C#N)cn2)n[nH]1 [Prexasertib] + CCc1c2c(nc3ccc(O)cc13)-c1cc3c(c(=O)n1C2)COC(=O)[C@]3(O)CC [SN-38] (first compound max 1 µM, 7x7, partner max 0.3 µM) | 1 | 0.842 | 0.767 | 0.984 | 0.966 | 0.727 | 0.71 | 1 | 0.95 | 1 | 1 | 0.642 | 1 | 0.976 | 0.559 | 0.712 | 0.868 | 0.985 | 0.918 | 0.726
9 | COc1cccc(OCCCN)c1-c1cc(Nc2cnc(C#N)cn2)n[nH]1 [Prexasertib] + CN(C)CCCOc1ccc(-c2ccc3ncc4c(c3c2)n(C2CCOCC2)c(=O)n4C)cn1 [AZD0156] (first compound max 1 µM, 7x7, partner max 1 µM) | 1 | 0.324 | 0.756 | 0.516 | 0.774 | 0.532 | 0.388 | 0.992 | 0.837 | 0.951 | 0.944 | 0.561 | 1 | 0.909 | 0.386 | 0.513 | 0.562 | 0.999 | 0.672 | 0.662
10 | COc1cccc(OCCCN)c1-c1cc(Nc2cnc(C#N)cn2)n[nH]1 [Prexasertib] + C[C@@H]1COCCN1C2=NC(=NC(=C2)C3(CC3)[S@](=N)(=O)C)C4=C5C=CNC5=NC=C4 [AZD6738] (first compound max 1 µM, 7x7, partner max 10 µM) | 1 | 0.315 | 0.762 | 0.736 | 0.846 | 0.655 | 0.489 | 0.992 | 0.854 | 0.995 | 0.97 | 0.565 | 1 | 0.92 | 0.351 | 0.544 | 0.605 | 1 | 0.737 | 0.616
11 | COc1cccc(OCCCN)c1-c1cc(Nc2cnc(C#N)cn2)n[nH]1 [Prexasertib] + Cc1cc2ncnn2cc1Nc1ncc2c(n1)n(C1CCOCC1)c(=O)n2C [AZD7648] (first compound max 1 µM, 7x7, partner max 10 µM) | 1 | 0.36 | 0.762 | 0.558 | 0.782 | 0.575 | 0.415 | 1 | 0.891 | 0.963 | 0.964 | 0.58 | 1 | 0.92 | 0.317 | 0.505 | 0.58 | 0.992 | 0.649 | 0.662
12 | COc1cccc(OCCCN)c1-c1cc(Nc2cnc(C#N)cn2)n[nH]1 [Prexasertib] + O=C(c1cc(Cc2n[nH]c(=O)c3ccccc23)ccc1F)N1CCN(C(=O)C2CC2)CC1 [Olaparib] (first compound max 1 µM, 7x7, partner max 10 µM) | 1 | 0.633 | 0.778 | 0.793 | 0.794 | 0.516 | 0.388 | 0.994 | 0.9 | 0.98 | 0.95 | 0.424 | 0.987 | 0.916 | 0.322 | 0.574 | 0.524 | 0.845 | 0.642 | 0.616
13 | CCc1c2c(nc3ccc(O)cc13)-c1cc3c(c(=O)n1C2)COC(=O)[C@]3(O)CC [SN-38] + CN(C)CCCOc1ccc(-c2ccc3ncc4c(c3c2)n(C2CCOCC2)c(=O)n4C)cn1 [AZD0156] (first compound max 0.3 µM, 7x7, partner max 1 µM) | 1 | 0.683 | 0.762 | 0.978 | 0.881 | 0.683 | 0.674 | 0.999 | 0.7 | 0.95 | 0.719 | 0.517 | 0.913 | 0.948 | 0.361 | 0.614 | 0.745 | 0.806 | 0.714 | 0.202
